Data on 31 molecules can be found in ChEMBL document CHEMBL5500416, “Development of a Potent and Selective G2A (GPR132) Agonist” (J Med Chem, 2024).

The target of data set [1] is T1, Probable G-protein coupled receptor 132 (Homo sapiens, UniProt Q9UNW8).
T1 sequence (Q9UNW8 whole entry): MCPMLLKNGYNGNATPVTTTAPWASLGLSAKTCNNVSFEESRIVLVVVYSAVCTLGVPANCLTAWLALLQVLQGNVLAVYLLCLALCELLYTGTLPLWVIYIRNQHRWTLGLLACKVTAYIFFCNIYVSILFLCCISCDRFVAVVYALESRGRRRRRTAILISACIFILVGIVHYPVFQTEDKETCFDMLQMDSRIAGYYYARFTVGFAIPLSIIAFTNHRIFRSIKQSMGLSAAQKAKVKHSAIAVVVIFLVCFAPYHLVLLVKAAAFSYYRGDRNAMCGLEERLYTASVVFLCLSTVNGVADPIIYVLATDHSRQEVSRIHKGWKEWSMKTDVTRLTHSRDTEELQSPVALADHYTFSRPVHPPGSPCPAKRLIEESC
Description: Agonist activity at human G2A expressed in CHO-K1 cells co-expressing human GNA11 assessed as accumulation of IP-1 incubated for 90 mins by HTRF based FRET assay

Data set [2] in a line: Cytotoxicity against human HepG2 cells assessed as cell viability upto 100 uM incubated for 72 hrs by CellTiter-Glo assay relative to control. The class given is toxicity, cell-based. To be noted: read-out: Activity. (In general: In ATP-based viability assays light output follows the ATP content of the culture.)
Data set [3] is described as follows: Metabolic stability in Sprague-Dawley rat liver microsomes assessed as intrinsic clearance measured after 60 mins in presence of NADPH regenerating system by HPLC analysis. The following applies: 1 h. It counts as ADME, Microsome. On the technique in general: Liver microsomes are vesicles of endoplasmic reticulum, rich in cytochrome P450 enzymes.
Data set [4] is described as follows: Tmax in male C57BL/6N mouse at 1 mg/kg, iv measured after 8 hrs by LC-MS analysis. It counts as ADME, organism-based. The following applies: in vivo.
A short description of data set [5]: Drug concentration in male C57BL/6N mouse plasma at 10 mg/kg, sc measured after 12 hrs by LC-MS analysis. It counts as ADME, organism-based.
The nature of data set [6]: Cmax in male C57BL/6N mouse at 1 mg/kg, iv measured after 8 hrs by LC-MS analysis. The class given is ADME, organism-based. To be noted: in vivo.
The nature of data set [7]: AUC (0 to 8 hrs) in male C57BL/6N mouse at 1 mg/kg, iv measured after 8 hrs by LC-MS analysis. The class given is ADME, organism-based. To be noted: in vivo.
The nature of data set [8]: Cmax in male C57BL/6N mouse at 10 mg/kg, sc measured after 12 hrs by LC-MS analysis. The class given is ADME, organism-based. The following applies: in vivo.
Data set [9] in a line: AUC (0 to 12 hrs) in male C57BL/6N mouse at 10 mg/kg, sc measured after 12 hrs by LC-MS analysis. The following applies: in vivo. The class given is ADME, organism-based.
A short description of data set [10]: Clearance in male C57BL/6N mouse at 10 mg/kg, sc measured after 12 hrs by LC-MS analysis. The following applies: in vivo. It counts as ADME, organism-based.
The target in data set [11] is T1, Probable G-protein coupled receptor 132. The source holds these as a separate data set.
Description: Binding affinity to SmBit-tagged human G2A expressed in CHOK-1 cells co-expressing LgBit-betaarrestin2 incubated for 15 mins by NanoLuc betaarrestin2 recruitment assay
Data set [12] in a line: Aqueous solubility of compound in PBS at pH 7.4 measured after 24 hrs by microplate analysis. It counts as physicochemical. The following applies: buffer, pH 7.4, 24 h.
Data set [13] can be described thus: Drug concentration in male C57BL/6N mouse plasma at 1 mg/kg, iv measured after 8 hrs by LC-MS analysis. The class given is ADME, organism-based.
The nature of data set [14]: Metabolic stability in Sprague-Dawley rat liver microsomes assessed as parent compound remaining measured after 60 mins in presence of NADPH regenerating system by HPLC analysis. The class given is ADME, Microsome. The following applies: read-out: Stability.
Data set [15] is described as follows: Tmax in male C57BL/6N mouse at 10 mg/kg, sc measured after 12 hrs by LC-MS analysis. The class given is ADME, organism-based. The following applies: in vivo.

With `CC(c1ccccc1)C(NC(=O)c1cccc(OCc2cccnc2)c1)C(=O)O` (stereo unspecified), the EC50 – broadly, the concentration at which the effect is half-maximal – in [1] is 19.6 µM.
`O=C(NC(C(=O)O)C1CC1)c1cccc(OCc2cccnc2)c1` (stereo unspecified): the EC50 in data set [1] was over 100 µM.
In [1], `CCC[C@@H](NC(=O)c1cccc(OCc2cccnc2)c1)C(=O)O` returned an EC50 of 40.6 µM.
On the same count and under the same terms, the result for `CC(NC(=O)c1cccc(OCc2cccnc2)c1)(C(=O)O)c1ccccc1` (stereo unspecified) reads 6.2 µM; that for `CCC(NC(=O)c1cccc(OCc2cccnc2)c1)C(=O)O` (stereo unspecified), 27.5 µM.
In turn, `O=C(NC(Cc1ccc(F)cc1)C(=O)O)c1cccc(OCc2cccnc2)c1` (stereo unspecified) registered an EC50 in [1] of 1.96 µM.
For `O=C(NC(Cc1ccccc1)C(=O)O)c1cccc(OCc2ccncc2)c1` (racemic), in data set [1], the EC50 worked out at 2.87 µM.
As for `O=C(NC(Cc1ccccc1Cl)C(=O)O)c1cccc(OCc2cccnc2)c1` (stereo unspecified), the EC50 in data set [1] came to 13.5 µM.
In data set [1], `O=C(N[C@H](Cc1ccc(Cl)cc1)C(=O)O)c1cccc(OCc2cccnc2)c1` came in with an EC50 of 7.53 µM.
In [1], `O=C(N[C@H](CCc1ccccc1)C(=O)O)c1cccc(OCc2cccnc2)c1` returned an EC50 of 12 µM.
As to `CC(C)[C@H](NC(=O)c1cccc(OCc2cccnc2)c1)C(=O)O`, the midpoint of the response in data set [1], the EC50, lay at 7.33 µM.
In data set [1], `O=C(NC(C(=O)O)c1cccnc1)c1cccc(OCc2cccnc2)c1` (stereo unspecified) showed an EC50 of 79.2 µM.
In turn, `O=C(NC(Cc1ccc(OC(F)(F)F)cc1)C(=O)O)c1cccc(OCc2cccnc2)c1` (racemic) gave an EC50 in data set [1] of 3.34 µM.
`CCCCC/C=C\C=C\C(O)CCCCCCCC(=O)O` (racemic) came in with an EC50 in data set [1] of 7.5 µM.
Regarding `O=C(NC(Cc1ccccc1)C(=O)O)c1cccc(OCc2cccnc2)c1` (stereo unspecified), the viability at 72 h, up to 100 µM in data set [2] was at least 90%. For the same molecule, in [1], the concentration giving a half-maximal response (EC50) turned out to be 1.74 µM.
In data set [1], `CCC[C@H](NC(=O)c1cccc(OCc2cccnc2)c1)C(=O)O` showed an EC50 of 2.92 µM.
The molecule `O=C(N[C@@H](CCc1ccccc1)C(=O)O)c1cccc(OCc2cccnc2)c1` had an EC50 in [1] of 68.5 µM.
Regarding `CC(C)[C@@H](NC(=O)c1cccc(OCc2cccnc2)c1)C(=O)O`, in [1], the response was half-maximal at 64.8 µM (EC50).
The same measure, in the same setting: then `O=C(N[C@H](Cc1ccc(C(F)(F)F)cc1)C(=O)O)c1cccc(OCc2cccnc2)c1`, with 8.71 µM; and `COC[C@H](NC(=O)c1cccc(OCc2cccnc2)c1)C(=O)O`, with over 100 µM.
`O=C(N[C@H](Cc1ccccc1)C(=O)O)c1cccc(OCc2cccnc2)c1`: the CLint in [3] came to 1.68 µL/min/mg. The viability at 72 h, up to 100 µM in data set [2] was at least 90%. The time of peak concentration (Tmax) (commonly the time from dosing to the highest level) in [4] was 15 min; in [15], 30 min. In data set [5], this molecule registered a concentration at 12 h of 2.9 ng/mL. Also, the Cmax (in general, the highest concentration seen after dosing) worked out at 45.3 ng/mL in data set [6] and 755 ng/mL in data set [8]. In addition, the AUC(0-t) (in general, exposure summed from dosing to a finite time, without extrapolation to infinity) at 8 h in data set [7] worked out at 47.3 ng·h/mL. Further, in data set [9], the AUC(0-t) at 12 h turned out to be 591 ng·h/mL. Also, the CL/F (usually the apparent clearance, not corrected for the fraction that reaches the circulation) in [10] was 141 mL/min/kg. The values for the EC50 in data set [11] and in data set [1] were 7.7 µM and 0.82 µM, respectively. The solubility entry in data set [12] is recorded as “>= 3000 uM”. The same molecule gave a concentration at 8 h in [13] of 2.4 ng/mL. Moreover, the remaining at 1 h in [14] was found to be 98%.
`C[C@H]1CC[C@@](NC(=O)c2cccc(OCc3cccnc3)c2)(C(=O)O)CC1` returned an EC50 in data set [1] of 13.2 µM.
The molecule `O=C(N[C@@H](Cc1ccccc1)C(=O)O)c1cccc(OCc2cccnc2)c1` showed a half-maximal effective concentration (EC50) in data set [1] of 31.1 µM.
`O=C(NC(Cc1ccccc1)C(=O)O)c1cccc(OCc2ccccc2)c1` (stereo unspecified) had an EC50 in data set [1] of 7.5 µM.
The molecule `CCCC(NC(=O)c1cccc(OCc2cccnc2)c1)C(=O)O` (stereo unspecified) had an EC50 in [1] of 6.87 µM.
`O=C(N[C@@H](CC1CCCCC1)C(=O)O)c1cccc(OCc2cccnc2)c1` registered an EC50 in data set [1] of 12.2 µM.
As for `O=C1C2=C(CCN(Cc3ccccc3)C2)N2CCN=C2N1Cc1ccc(C(F)(F)F)cc1`, the EC50 in data set [1] was 3.92 µM.
In data set [1], `O=C(N[C@@H](C(=O)O)c1ccccc1)c1cccc(OCc2cccnc2)c1` gave an EC50 of 38.4 µM.
`O=C(NC(Cc1ccccc1)C(=O)O)c1ccc(OCc2cccnc2)cc1` (racemic): the concentration for a half-maximal effect (EC50) in [1] is 38.2 µM.
On to `O=C(NC(Cc1ccncc1)C(=O)O)c1cccc(OCc2cccnc2)c1` (stereo unspecified), for which the EC50 in data set [1] was 49.7 µM.
Turning to `O=C(NC(Cc1ccccc1)C(=O)O)c1cccc(OCc2ccccn2)c1` (racemic), in data set [1], the EC50 came to 11.9 µM.
